The source of these data is US5747235A, “Silver halide light sensitive emulsion layer having enhanced photographic sensitivity” (Eastman Kodak Company, priority 1996, dated 1998).

A short description of test [1]: Example 10: photographic sensitivity and fog, color format, blue sensitized emulsion T-2. To be noted: for Photographic Sensitivity SWR2B: control=100. As to the method: The hydroxybenzene, 2,4-disulfocatechcol (HB3) at a concentration of 13×10^-3 mole/mole Ag was added to the emulsion melt before the start of the chemical sensitization procedure. […] The fragmentable two-electron donors S-3, S-9, S-6, or S-8 were then added to the emulsion melt.
The melts were prepared for coating by adding additional water, deionized gelatin and coating surfactants. Coatings were prepared by combining the emulsion melts with a melt containing deionized gelatin and an aqueous dispersion of the cyan-forming color coupler CC-1 and coating the resulting mixture on acetate support. […] The structure of the color coupler CC-1 is given below: [drawing 120]
For photographic evaluation, each of the coating strips was exposed for 0.01 sec to a 3000K color temperature tungsten lamp filtered to give an effective color temperature of 5500K and further filtered through a Kodak Wratten filter number 2B, and a step wedge ranging in density from 0 to 4 density units in 0.20 density steps. This exposure gives light absorbed mainly by the blue sensitizing dye. The exposed film strips were developed for 31/4 minutes in Kodak C-41 color developer. SWR2B, relative sensitivity for this filtered exposure, was evaluated at a cyan density of 0.15 units above fog.

Test [2] can be described thus: Example 3: spectral sensitivity, wedge spectrographic exposure, emulsion T-2. To be noted: dyed control=100. As to the method: This emulsion was precipitated using deionized gelatin. […] The chemically sensitized emulsion was then used to prepare coatings containing the fragmentable two-electron donor compounds. All of the experimental coating variations in Table III contained the hydroxybenzene 2,4-disulfocatechol (HB3) at a concentration of 13 mmole/ mole Ag, added to the melt before the addition of any further addenda. Where present, the blue sensitizing dye D-I or the red sensitizing dye D-II were added from methanol solution to the emulsion at 40° C. after the chemical sensitization and disulfocatechol addition.
Additional testing was carried out to determine the response of the coatings described in Table III to a spectral exposure. Each of the coating strips was exposed for 0.1 sec on a wedge spectrographic instrument that covers the wavelength range from 400 to 750 nm. The instrument contains a tungsten light source and a step tablet ranging in density from 0 to 3 density units in 0.3 density steps. After developing exposed strips for 6 min in Kodak Rapid X-ray Developer (KRX), speed was read at 10 nm wavelength intervals at a density of 0.3 above fog. Correction for the instrument's variation in spectral irradiance with wavelength was done with a computer and a plot of log sensitivity vs. wavelength was generated. For this exposure, for each dye used, the relative sensitivity was set equal to 100 for the control coating with no fragmentable two-electron donor compound added.

Test [3] in a line: Example 9: photographic speed and fog, 365 nm exposure, red dyed emulsion T-2. To be noted: for Fog / S365: dye II 0.86 x10^-3; for S365: undyed control=100, dyed control 62; for 365 nm sensitivity of dyed emulsion: dye D-II. The method, then:
For photographic evaluation, each of the coating strips was exposed for 0.1 sec to a 365 nm emission line of a Hg lamp filtered through a Kodak Wratten filter number 18A and a step wedge ranging in density from 0 to 4 density units in 0.2 density steps. The exposed film strips were developed for 6 min in Kodak Rapid X-ray Developer (KRX). S365, relative sensitivity at 365 nm, was evaluated at a density of 0.2 units above fog.
An AgBrI tabular silver halide emulsion (Emulsion T-2) was prepared containing 4.05% total I distributed such that the central portion of the emulsion grains contained 1.5% I and the perimeter area contained substantially higher I, as described by Chang et. al., U.S. Pat. No. 5,314,793. […] This emulsion was precipitated using deionized gelatin. The emulsion was sulfur sensitized by adding 8.5×10^-6 mole 1,3-dicarboxymethyl-1,3-dimethyl-2-thiourea /mole Ag at 40° C.; the temperature was then raised to 60° C. at a rate of 5° C./3 min and the emulsions held for 20 min before cooling to 40° C. The chemically sensitized emulsion was then used to prepare coatings containing the fragmentable two-electron donor compounds. All of the experimental coating variations in Table III contained the hydroxybenzene 2,4-disulfocatechol (HB3) at a concentration of 13 mmole/ mole Ag, added to the melt before the addition of any further addenda. Where present, the blue sensitizing dye D-I or the red sensitizing dye D-II were added from methanol solution to the emulsion at 40° C. after the chemical sensitization and disulfocatechol addition. The fragmentable two-electron donor compounds were added to the emulsion at 40° C. and the coatings were prepared and tested as described in Example 1, except that the additional gelatin used to prepare the coatings described in Table III was deionized gelatin.
The sulfur sensitized AgBrI tabular emulsion T-2 as described in Example 3 was used to prepare coatings of the fragmentable two-electron donors S-15, S-14, S-13, and S-11, as described in Table IX. All of the experimental coating variations in Table IX contained the hydroxybenzene, 2,4-disulfocatechcol (HB3) at a concentration of 13 mmole/mole Ag, added to the melt before any further addenda. Where present, the red sensitizing dye D-II was added from methanol solution to the emulsion at 40° C. after the chemical sensitization and disulfocatechol addition. The fragmentable two-electron donor compounds were then added to the emulsion and coatings prepared and tested as described in Example I, except that the additional gelatin used to prepare the coatings described in Table IX was deionized gelatin.

Where [4] appears, read: 0.0022 x10^-3 mole/mole Ag, dye II 0.86 x10^-3.
The mark [5] stands for this setting: 0.022 x10^-3 mole/mole Ag, dye I 0.91 x10^-3.
Where [6] appears, read: 0.007 x10^-3 mole/mole Ag, dye II 0.86 x10^-3.
[7] abbreviates: 0.07 x10^-3 mole/mole Ag, dye I 0.91 x10^-3.

Where a name gives a salt, the structure may show the parent alone.

On to `CCSCCN(c1ccc(C)cc1)[C@@H](C)C(=O)[O-].[Na+]` [Compound S-3, N-(4-Methylphenyl)-N-(2-ethylthio-ethyl)alanine sodium salt], for which the Fog is listed as 0.14 in test [1] (0.022 x10^-3 mol/mol Ag) and 0.19 in test [1] (0.07 x10^-3 mol/mol Ag). For the same compound, the “Photographic Sensitivity SWR2B” value in test [1] (0.022 x10^-3 mol/mol Ag) turned out to be 97; in test [1] (0.07 x10^-3 mol/mol Ag), 110. Besides, the figures for the Sλ in test [2] (setting [4]) and in test [2] (setting [5]) were 166 and 120, respectively.
For the compound `CCSCCN(c1ccc(C)cc1)C(CC(=O)O)C(=O)O` (stereo not shown) [Compound S-8], the Fog in test [1] (0.022 x10^-3 mol/mol Ag) was 0.14; in test [1] (0.07 x10^-3 mol/mol Ag), 0.23. Besides, the “Photographic Sensitivity SWR2B” value in test [1] (0.022 x10^-3 mol/mol Ag) is 107; in test [1] (0.07 x10^-3 mol/mol Ag) it was 110. Also, the Sλ in test [2] (setting [4]) was 141; in test [2] (setting [6]) it was 166; in test [2] (setting [5]), 112; in test [2] (setting [7]), 112.
`CCSCCN(c1ccccc1)C(C)C(=O)O` (stereo not shown) [Compound S-9, N-(Phenyl)-N-(2-thioethyl-ethyl)alanine sodium salt]: the Fog in test [1] (0.022 x10^-3 mol/mol Ag) is 0.16; in test [1] (0.07 x10^-3 mol/mol Ag) it was 0.19. Further, the “Photographic Sensitivity SWR2B” value in test [1] (0.022 x10^-3 mol/mol Ag) amounted to 162; in test [1] (0.07 x10^-3 mol/mol Ag), 182. Besides, the Sλ in test [2] (setting [4]) stood at 162; in test [2] (setting [6]), 141; in test [2] (setting [5]), 126; in test [2] (setting [7]), 138.
In test [3] (0.007 x10^-3 mol/mol Ag), `CCSCCN(c1ccc(C(=O)O)cc1)C(C)C(=O)O` (stereo not shown) [Compound S-11] returned a Fog of 0.12 and an S365 of 87. In test [3] (0.022 x10^-3 mol/mol Ag), this compound yielded a Fog of 0.13 and an S365 of 100. Also, the “365 nm sensitivity of dyed emulsion” value in test [3] was “restored to that of the undyed emulsion”.
`CCSCCN(c1cccc(C(N)=O)c1)C(C)C(=O)O` (stereo not shown) [Compound S-13]: the Fog came out at 0.13 in test [3] (0.007 x10^-3 mol/mol Ag) and 0.20 in test [3] (0.022 x10^-3 mol/mol Ag). Further, the S365 in test [3] (0.007 x10^-3 mol/mol Ag) worked out at 95; in test [3] (0.022 x10^-3 mol/mol Ag), 102. Moreover, the “365 nm sensitivity of dyed emulsion” value in test [3] is listed as “restored to that of the undyed emulsion”.
For `CCSCCN(c1ccccc1)C(CC(=O)O)C(=O)O` (stereo not shown) [Compound S-14], in test [3] (0.007 x10^-3 mol/mol Ag), the Fog is given as 0.11 and the S365 is 89. Moreover, in test [3] (0.022 x10^-3 mol/mol Ag), the Fog is listed as 0.14 and the S365 amounted to 97. Besides, in test [3], the “365 nm sensitivity of dyed emulsion” value is reported as “restored to that of the undyed emulsion”.
